Experimental data from patent publication US20120295845A1, “IMIDAZO-PYRAZOLES AS GPR119 INHIBITORS” (Pfizer Inc, priority 2009, published 2012).
Where “and” joins values, the source holds several entries; their conditions need not be identical. Equal values may be shown once.

Experiments:
[1] = target: T1, human GPR119 (Homo sapiens, UniProt Q8TDV5); experiment: cAMP functional assay (HTRF, hGPR119 HEK-CRE beta-lactamase cells); type: cell-based; details: one value per run; for EC50: hGPR119 HEK-CRE beta-lactamase cells, HTRF cAMP, 30 min incubation with IBMX; for Emax / Intrinsic Activity* (cAMP): percent of maximal activity relative to standard GPR119 agonist (WO2005121121) at 10 μM; for Emax: read-out: Intrinsic Activity* (cAMP)
T1 construct: host or cells: HEK293-CRE beta-lactamase cells
T1 sequence (Q8TDV5 1-335): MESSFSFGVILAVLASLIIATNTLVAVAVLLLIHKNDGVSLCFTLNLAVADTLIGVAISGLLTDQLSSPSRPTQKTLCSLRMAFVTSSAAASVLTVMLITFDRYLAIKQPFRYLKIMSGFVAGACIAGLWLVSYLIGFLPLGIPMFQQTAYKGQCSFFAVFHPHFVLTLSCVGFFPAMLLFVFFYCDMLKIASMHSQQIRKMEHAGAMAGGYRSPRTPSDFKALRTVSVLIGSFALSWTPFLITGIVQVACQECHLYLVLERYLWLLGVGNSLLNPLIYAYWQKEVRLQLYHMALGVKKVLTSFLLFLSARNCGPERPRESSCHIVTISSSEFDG
Procedure: GPR119 agonist activity was also determined with a cell-based assay utilizing an
HTRF (Homogeneous Time-Resolved Fluorescence) cAMP detection kit (cAMP dynamic 2 Assay Kit; Cis Bio cat # 62AM4PEC) that measures cAMP levels in the cell. The method is a competitive immunoassay between native cAMP produced by the cells and the cAMP labeled with the dye d2. The tracer binding is visualized by a Mab anti-cAMP labeled with Cryptate. The specific signal (Le. energy transfer) is inversely proportional to the concentration of cAMP in either standard or sample.
Specifically, hGPR119 HEK-CRE beta-lactamase cells (Invitrogen 2.5×10^7/mL; the same cell line used in the beta-lactamase assay described above) are removed from cryopreservation and diluted in growth medium (Dulbecco's modified Eagle medium high glucose (DMEM; Gibco Cat # 11995-065), 1% charcoal dextran treated fetal bovine serum (CD serum; HyClone Cat # SH30068.03), lx MEM Nonessential amino acids (Gibco Cat # 15630-080) and 25 mM HEPES pH 7.0 (Gibco Cat # 15630-080)). The cell concentration was adjusted to 1.5×10^5 cells/mL and 30 mLs of this suspension was added to a T-175 flask and incubated at 37 degrees Celsius in a humidified environment in 5% carbon dioxide. After 16 hours (overnight), the cells were removed from the T-175 flask (by rapping the side of the flask), centrifuged at 800×g and then re-suspended in assay medium (1×HBSS+CaCl2+MgCl2 (Gibco Cat # 14025-092) and 25 mM HEPES pH 7.0 (Gibco Cat # 15630-080)). The cell concentration was adjusted to 6.25×10^5 cells/mL with assay medium and 8 μl of this cell suspension (5000 cells) was added to each well of a white Greiner 384-well, low-volume assay plate (VWR cat # 82051-458).
Varying concentrations of each compound to be tested were diluted in assay buffer containing 3-isobutyl-1-methylxanthin (1BMX; Sigma cat #15879) and added to the assay plate weds in a volume of 2 microL (final BMX concentration was 400 microM and final DMSO concentration was 0.58%). Following 30 minutes incubation at room temperature, 5 microL of labeled d2 cAMP and 5 microL of anti-cAMP antibody (both diluted 1:20 in cell lysis buffer; as described in the manufacturers assay protocol) were added to each well of the assay plate. The plates were then incubated at room temperature and after 60 minutes, changes in the HTRF signal were read with an Envision 2104 multilabel plate reader using excitation of 330 nm and emissions of 615 and 665 nm. Raw data were converted to nM cAMP by interpolation from a cAMP standard curve (as described in the manufacturer's assay protocol) and EC50 determinations were made from an agonist-response curves analyzed with a curve fitting program using a 4-paramter logistic dose response equation.

[2] = target: T2, human GPR119 (Homo sapiens, UniProt Q8TDV5); experiment: beta-arrestin functional assay (DiscoverX PathHunter U2OS hGPR119 beta-arrestin cells); type: cell-based; details: for Emax: U2OS, read-out: Intrinsic Activity* (B-arrestin); for EC50: read-out: Human B-arrestin Functional EC50
T2 construct: host or cells: U2OS
Procedure: GPR119 agonist activity was also determined with a cell-based assay utilizing DiscoverX PathHunter β-arrestin cell assay technology and their U2OS hGPR119 β-arrestin cell line (DiscoverX Cat # 93-0356C3). In this assay, agonist activation is determined by measuring agonist-induced interaction of β-arrestin with activated GPR119. A small, 42 amino acid enzyme fragment, called ProLink was appended to the C-terminus of GPR119. Arrestin was fused to the larger enzyme fragment, termed EA (Enzyme Acceptor). Activation of GPR119 stimulates binding of arrestin and forces the complementation of the two enzyme fragments, resulting in formation of a functional β-galactosidase enzyme capable of hydrolyzing substrate and generating a chemiluminescent signal.
Specifically, U2OS hGPR119 β-arrestin cells (DiscoverX 1×10^7/mL) are removed from cryopreservation and diluted in growth medium (Minimum essential medium (MEM; Gibco Cat # 11095-080), 10% heat inactivated fetal bovine serum (HIFBS; Sigma Cat # F4135-100), […] sodium pyruvate (Sigma Cat # S8636), 500 microg/mL G418 (Sigma Cat # G8168) and 250 microg/mL Hygromycin B (Invitrogen Cat # 10687-010). The cell concentration was adjusted to 1.66×10^5 cells/mL and 30 mLs of this suspension was added to a T-175 flask and incubated at 37 degrees Celsius in a humidified environment in 5% carbon dioxide. After 48 hours, the cells were removed from the T-175 flask with enzyme-free cell dissociation buffer (Gibco cat # 13151-014), centrifuged at 800×g and then re-suspended in plating medium (Opti-MEM I (Invitrogen/BRL Cat # 31985-070) and 2% charcoal dextran treated fetal bovine serum (CD serum; HyClone Cat # SH30068.03). The cell concentration was adjusted to 2.5×10^5 cells/mL with plating medium and 10 microL of this cell suspension (2500 cells) was added to each well of a white Greiner 384-well low volume assay plate (VWR cat # 82051-458) and the plates were incubated at 37 degrees Celsius in a humidified environment in 5% carbon dioxide.
After 16 hours (overnight) the assay plates were removed from the incubator and varying concentrations of each compound to be tested (diluted in assay buffer (1×HBSS+CaCl2+MgCl2 (Gibco Cat # 14025-092), 20 mM HEPES pH 7.0 (Gibco Cat # 15630-080) and 0.1% BSA (Sigma Cat # A9576)) were added to the assay plate wells in a volume of 2.5 microL (final DMSO concentration was 0.5%). After a 90 minute incubation at 37 degrees Celsius in a humidified environment in 5% carbon dioxide, 7.5 microL of Galacton Star β-galactosidase substrate (Path Hunter Detection Kit (DiscoveRx Cat # 93-0001); prepared as described in the manufacturers assay protocol) was added to each well of the assay plate. The plates were incubated at room temperature and after 60 minutes, changes in the luminescence were read with an Envision 2104 multilabel plate reader at 0.1 seconds per well. EC50 determinations were made from an agonist-response curves analyzed with a curve fitting program using a 4-parameter logistic dose response equation.
T2 sequence (P32121 whole entry partner, one chain of several): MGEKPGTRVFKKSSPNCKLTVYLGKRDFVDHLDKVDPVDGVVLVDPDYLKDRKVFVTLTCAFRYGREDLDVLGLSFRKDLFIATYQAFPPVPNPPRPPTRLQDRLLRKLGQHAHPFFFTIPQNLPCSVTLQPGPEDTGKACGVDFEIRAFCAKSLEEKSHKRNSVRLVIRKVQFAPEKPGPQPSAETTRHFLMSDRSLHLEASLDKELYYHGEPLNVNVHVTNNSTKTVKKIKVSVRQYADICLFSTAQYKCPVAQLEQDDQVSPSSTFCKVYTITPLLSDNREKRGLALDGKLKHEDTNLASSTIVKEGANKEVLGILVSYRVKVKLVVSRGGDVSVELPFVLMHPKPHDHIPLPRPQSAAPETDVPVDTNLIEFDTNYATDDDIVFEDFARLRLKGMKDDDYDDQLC

[3] = U2OS hGPR119 beta-arrestin cells, 90 min incubation, one value per run
[4] = percent of maximal activity relative to standard GPR119 agonist (WO2005121121) at 10 microM, one value per run

EC50 [1] | Emax [1] | Emax ([2]; marked **: curve extrapolated to 100%, relative to standard GPR119 agonist at 10 microM) | EC50 ([2]; curve was extrapolated to 100% to calculate the EC50 (**)) | Intrinsic Activity* (cAMP) [1] | EC50 [2, 3] | Intrinsic Activity* (B-arrestin) [2, 4] | Emax [2, 4] | SMILES
117 nM and 255 nM | 71% | 100% | 313 nM |  |  |  |  | Cc1c(OC2CCN(C(=O)OC3(C)CC3)CC2)ncnc1N1CCn2nccc21 [Example 2, 1-Methylcyclopropyl 4-{[6-(2,3-dihydro-1H-imidazo[1,2-b]pyrazol-1-yl)-5-methylpyrimidin-4-yl]oxy}piperidine-1-carboxylate]
 | 28% |  |  | 27% |  |  |  | Cc1c(OC2CCN(C(=O)OC(C)C)CC2)ncnc1N1CCn2nccc21 [Example 1, Isopropyl 4-{[6-(2,3-dihydro-1H-imidazo[1,2-b]pyrazol-1-yl)-5-methylpyrimidin-4-yl]oxy}piperidine-1-carboxylate]
40 nM and 140 nM and 48 nM and 88 nM and 82 nM | 86% |  |  | 82% and 89% and 76% and 83% | 47 nM and 121 nM | 87% and 65% |  | Cc1c(O[C@H]2CCN(C(=O)OC3(C)CC3)C[C@H]2F)ncnc1N1CCn2nccc21 (single isomer, unassigned) [Example 6]
32 nM and 45 nM | 31% |  |  | 28% | 53 nM |  | 38% | Cc1c(O[C@H]2CCN(C(=O)OC(C)C)C[C@H]2F)ncnc1N1CCn2nccc21 (racemic) [Example 4, Isopropyl (3R,4S)-4-{[6-(2,3-dihydro-1H-imidazo[1,2-b]pyrazol-1-yl)-5-methylpyrimidin-4-yl]oxy}-3-fluoropiperidine-1-carboxylate (racemic)]
66 nM and 68 nM | 80% |  |  | 61% | 74 nM and 92 nM | 68% | 83% | Cc1c(O[C@H]2CCN(C(=O)OC3(C)CC3)C[C@H]2F)ncnc1N1CCn2nccc21 (racemic) [Example 3, 1-Methylcyclopropyl (3R,4S)-4-{[6-(2,3-dihydro-1H-imidazo[1,2-b]pyrazol-1-yl)-5-methylpyrimidin-4-yl]oxy}-3-fluoropiperidine-1-carboxylate (racemic)]
38 nM and 36 nM and 34 nM and 49 nM and 47 nM | 76% |  |  | 68% and 81% and 61% | 56 nM and 49 nM | 83% and 55% |  | Cc1c(O[C@@H]2CCN(C(=O)OC3(C)CC3)C[C@@H]2F)ncnc1N1CCn2nccc21 (single isomer, unassigned) [Example 5]
